Measured values published in ChEMBL document CHEMBL1130804, “Potent antimitotic and cell growth inhibitory properties of substituted chalcones” (Bioorg Med Chem Lett, 1998).

How the values were obtained:
[1] = test system: K562; test: Compound was evaluated for cytotoxic activity against K562 human chronic myelogenous leukemia cell line using MTT assay; type: functional, cell-based
[2] = target: Tubulin alpha chain (Sus scrofa, UniProt P02550); test: Tested for inhibition of polymerization of tubulin
[3] = test system: HeLa; test: Compound was evaluated for cytotoxic activity against HeLa S3 cell line; type: functional, cell-based; details: Homo sapiens

Chain of Tubulin alpha chain (P02550 whole entry, looked up): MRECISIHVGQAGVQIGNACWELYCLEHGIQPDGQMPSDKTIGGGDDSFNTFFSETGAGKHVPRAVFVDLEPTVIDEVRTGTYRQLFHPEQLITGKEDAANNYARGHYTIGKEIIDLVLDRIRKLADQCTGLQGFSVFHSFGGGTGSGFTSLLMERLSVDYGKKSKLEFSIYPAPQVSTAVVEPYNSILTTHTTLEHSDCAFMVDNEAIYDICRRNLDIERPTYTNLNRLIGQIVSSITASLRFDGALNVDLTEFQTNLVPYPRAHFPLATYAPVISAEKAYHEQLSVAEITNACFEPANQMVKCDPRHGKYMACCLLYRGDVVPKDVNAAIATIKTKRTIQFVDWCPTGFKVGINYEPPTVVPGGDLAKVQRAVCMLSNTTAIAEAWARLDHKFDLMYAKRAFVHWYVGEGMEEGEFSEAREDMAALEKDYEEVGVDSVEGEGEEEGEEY

IC50 [2] | SMILES | IC50 [1] | IC50 [3]
– | COc1ccc(OC)c(C(=O)/C=C/c2ccc(N(C)C)cc2)c1 | 36 nM | –
– | COc1cc(C(=O)/C(C)=C/c2ccc3c(c2)OCCO3)cc(OC)c1OC | 12 nM | –
– | COc1cc(C(=O)/C=C/c2ccc3c(c2)OCCO3)cc(OC)c1OC | 80 nM | –
– | COc1cc(C(=O)/C=C/c2ccc3c(c2)OCO3)cc(OC)c1OC | 300 nM | –
– | COc1ccc(/C=C/C(=O)c2cc(OC)c(OC)c(OC)c2)cc1O | 4.3 nM | –
12 nM | COc1ccc(OC)c(C(=O)/C(C)=C/c2ccc(N(C)C)cc2)c1 | 11 nM | –
– | COc1ccc(/C=C(\C)C(=O)c2cc(OC)c(OC)c(OC)c2)cc1O | 0.21 nM | 0.62 nM
– | COc1cc(C(=O)/C(C)=C/c2ccc3c(c2)OCO3)cc(OC)c1OC | 14 nM | –
